Results as given in patent US20170273961A1, “NOVEL IMINONITRILE DERIVATIVES” (CURADEV PHARMA, PVT. LTD., priority 2014, published 2017).

Biological target: T1, IDO1 (Mus musculus, UniProt P28776)
T1 construct: LPS-injected mice have been used as models to study IDO1 expression and activity; from tissue; host or cells: whole animal: LPS-injected C57BL/6 mice, with IDO1 induced in a variety of tissues
Assay: Reduction of LPS induced plasma kynurenine levels in C57BL/6 mice
Type: in vivo
Settings: LPS-injected (6 mg/kg i.p.) C57BL/6 mice; test compound given orally 20 h after LPS; plasma KYN by LC/MS/MS at 2 hr post dosing
Description: Inflammatory mediators such as Lipopolysaccharides (LPS) and Interferon-gamma (IFNg) are well-established inducers of IDO1 expression. Intraperitoneal (i.p.) administration of bacterial lipopolysaccharide (LPS) induces peak IDO1 activity in a variety of tissues within one day after LPS administration resulting in the production and release of kynurenine into the bloodstream (Takikawa, O., et al. (1986) J. Biol. Chem. 261:3648-53; Yoshida, H., et al. (1998) Cell 94:739-750). LPS-injected mice have been used as models to study IDO1 expression and activity. Three—eight fed C57 BL/6 mice (age 7-8 weeks, weight: about 20-22 g) were injected intrapritoneally with bacterial lipopolysaccharide (LPS; 26:B6 Sigma) at a concentration of 6 mg/kg. Animals were then housed in normal condition for 20 hours at which time the test compounds were administered orally in formulation containing 30% polyethylene glycol 400 (PEG 400) and 20% propylene glycol (PG) in normal saline (Dosing volume 10 mL/kg). Blood was drawn through retro-orbital bleeds into a tube containing 100 mM EDTA for plasma collection at the following times: just prior to LPS treatment, just prior to test compound dosing (0 hr) and then at 2 hr, 4 hr, 6 hr, 8 hr, 24 hr and 48 hr post-test compound dosing. Plasma KYN and drug levels were determined by LC/MS/MS using an API4000 mass spectrometer (Applied Biosystems) coupled to a Shimadzu Prominence LC system fitted with a C18 column.
The compounds of the invention decrease kynurenine levels. The compounds of the invention trigger a decrease of kynurenine levels at 2 hrs of at least 5%.

T1 sequence (P28776 whole entry): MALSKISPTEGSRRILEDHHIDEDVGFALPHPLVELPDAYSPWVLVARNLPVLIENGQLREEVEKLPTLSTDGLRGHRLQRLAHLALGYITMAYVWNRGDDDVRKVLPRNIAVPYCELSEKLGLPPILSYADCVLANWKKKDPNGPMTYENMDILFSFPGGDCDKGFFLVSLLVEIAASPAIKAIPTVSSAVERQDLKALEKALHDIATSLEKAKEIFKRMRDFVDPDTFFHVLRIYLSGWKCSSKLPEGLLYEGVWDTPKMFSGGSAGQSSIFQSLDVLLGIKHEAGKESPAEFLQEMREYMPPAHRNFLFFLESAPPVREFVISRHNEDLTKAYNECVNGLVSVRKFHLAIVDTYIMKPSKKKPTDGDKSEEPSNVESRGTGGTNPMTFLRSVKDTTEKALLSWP

Row | percentage of decrease of kynurenine level at two hours | SMILES
1 | 75% | Cc1cc(-c2nccc(/C(C#N)=N/c3cccc(F)c3)c2O)ccn1 [Compound 29, N-(3-Fluorophenyl)-3-hydroxy-2′-methyl-[2,4′-bipyridine]-4-carbimidoyl nitrile]
2 | 53% | Cc1nccc(/C(C#N)=N/c2ccc(F)c(Cl)c2)c1O [Compound 18, N-(3-Chloro-4-fluorophenyl)-3-hydroxy-2-methylisonicotinimidoyl nitrile]
3 | 67% | Cc1cc(-c2nccc(/C(C#N)=N/c3ccc(F)c(C(F)(F)F)c3)c2O)ccn1 [Compound 39, N-(4-Fluoro-3-(trifluoromethyl)phenyl)-3-hydroxy-2′-methyl-[2,4′-bipyridine]-4-carbimidoyl nitrile]
4 | 77% | N#C/C(=N\c1ccc(F)c(Cl)c1)c1ccnc(-c2cccnc2)c1O [Compound 44, N-(3-Chloro-4-fluorophenyl)-3-hydroxy-[2,3′-bipyridine]-4-carbimidoyl nitrile]
5 | 43% | CNC(=O)c1cc(-c2nccc(/C(C#N)=N/c3ccc(F)c(C(F)(F)F)c3)c2O)ccn1 [Compound 31, N-(4-Fluoro-3-(trifluoromethyl)phenyl)-3-hydroxy-2′-(methylcarbamoyl)-[2,4′-bipyridine]-4-carbimidoyl nitrile]
6 | 77% | N#C/C(=N\c1ccc(F)c(Cl)c1)c1ccnc(-c2ccncc2)c1O [Compound 04, N-(3-Chloro-4-fluorophenyl)-3-hydroxy-[2,4′-bipyridine]-4-carbimidoyl nitrile]
7 | 68% | CNC(=O)c1cc(-c2nccc(/C(C#N)=N/c3ccc(F)c(F)c3)c2O)ccn1 [Compound 37, N-(3,4-Difluorophenyl)-3-hydroxy-2′-(methylcarbamoyl)-[2,4′-bipyridine]-4-carbimidoyl nitrile]
8 | 21% | N#C/C(=N\c1ccc(F)c(Cl)c1)c1ccnc(-c2cc(F)nc(F)c2)c1O [Compound 21, N-(3-Chloro-4-fluorophenyl)-2′,6′-difluoro-3-hydroxy-[2,4′-bipyridine]-4-carbimidoyl nitrile]
9 | 36% | Cc1cc(-c2nccc(/C(C#N)=N/c3ccc(F)c(Cl)c3)c2O)cc(C)n1 [Compound 16]
10 | 43% | CNC(=O)c1cc(-c2nccc(/C(C#N)=N/c3ccc(F)c(Cl)c3)c2O)ccn1 [Compound 07, N-(3-Chloro-4-fluorophenyl)-3-hydroxy-2′-(methylcarbamoyl)-[2,4′-bipyridine]-4-carbimidoyl nitrile]
11 | 71% | Cc1cc(-c2nccc(/C(C#N)=N/c3ccc(F)c(Cl)c3)c2O)ccn1 [Compound 09, N-(3-Chloro-4-fluorophenyl)-3-hydroxy-2′-methyl-[2,4′-bipyridine]-4-carbimidoyl nitrile]
12 | 79% | Cc1cc(-c2nccc(/C(C#N)=N/c3ccc(F)c(F)c3)c2O)ccn1 [Compound 10, N-(3,4-Difluorophenyl)-3-hydroxy-2′-methyl-[2,4′-bipyridine]-4-carbimidoyl nitrile]
13 | 87% | N#C/C(=N\c1cccc(Cl)c1)c1ccnc(-c2ccncc2)c1O [Compound 22, N-(3-Chlorophenyl)-3-hydroxy-[2,4′-bipyridine]-4-carbimidoyl nitrile]
14 | 83% | N#C/C(=N\c1ccc(F)c(F)c1)c1ccnc(-c2ccncc2)c1O [Compound 08, N-(3,4-Difluorophenyl)-3-hydroxy-[2,4′-bipyridine]-4-carbimidoyl nitrile]
15 | 47% | COc1cc(-c2nccc(/C(C#N)=N/c3ccc(F)c(Cl)c3)c2O)ccn1 [Compound 15, N-(3-Chloro-4-fluorophenyl)-3-hydroxy-2′-methoxy-[2,4′-bipyridine]-4-carbimidoyl nitrile]
16 | 67% | CNC(=O)c1cc(-c2nccc(/C(C#N)=N/c3ccc(F)cc3)c2O)ccn1 [Compound 32, N-(4-Fluorophenyl)-3-hydroxy-2′-(methylcarbamoyl)-[2,4′-bipyridine]-4-carbimidoyl nitrile]

Further lines, the compound ahead of its results:

Row | SMILES | percentage of decrease of kynurenine level at two hours
17 | N#C/C(=N\c1ccc(F)c(Cl)c1)c1ccnc(C#N)c1O [Compound 02, N-(3-Chloro-4-fluorophenyl)-2-cyano-3-hydroxyIsonicotinimidoyl nitrile] | 45%
18 | N#C/C(=N\c1ccc(F)c(Cl)c1)c1ccnc(Nc2ccccc2)c1O [Compound 12, N-(3-Chloro-4-fluorophenyl)-3-hydroxy-2-(phenylamino)isonicotinimidoyl nitrile] | 15%
19 | N#C/C(=N\c1ccc(F)c(Cl)c1)c1cc(F)ncc1O [Compound 06, N-(3-Chloro-4-fluorophenyl)-2-fluoro-5-hydroxyIsonicotinimidoyl nitrile] | 73%
20 | Cc1cc(-c2nccc(/C(C#N)=N/c3cccc(C(F)(F)F)c3)c2O)ccn1 [Compound 38, 3-Hydroxy-2′-methyl-N-(3-(trifluoromethyl)phenyl)-[2,4′-bipyridine]-4-carbimidoyl nitrile] | 69%
21 | N#C/C(=N\c1ccc(F)c(Cl)c1)c1ccncc1O [Compound 01, N-(3-Chloro-4-fluorophenyl)-3-hydroxyisonicotinimidoyl nitrile] | 73%
22 | N#C/C(=N\c1ccccc1Cl)c1ccnc(-c2ccncc2)c1O [Compound 20] | 46%
23 | N#C/C(=N\c1cccc(F)c1)c1ccnc(-c2ccncc2)c1O [Compound 41, N-(3-Fluorophenyl)-3-hydroxy-[2,4′-bipyridine]-4-carbimidoyl nitrile] | 81%
24 | N#C/C(=N\c1ccc(F)c(F)c1)c1ccncc1O [Compound 36, N-(3,4-Difluorophenyl)-3-hydroxyisonicotinimidoyl nitrile] | 79%
25 | N#C/C(=N\c1cccc(F)c1)c1ccncc1O [Compound 35, N-(3-Fluorophenyl)-3-hydroxyisonIcotinimidoyl nitrile] | 74%
26 | N#C/C(=N\c1ccc(F)c(C(F)(F)F)c1)c1ccncc1O [Compound 05, N-(4-Fluoro-3-(trifluoromethyl)phenyl)-3-hydroxyisonicotinimidoyl nitrile] | 64%
27 | N#C/C(=N\c1ccc(F)c(Cl)c1)c1ccnc(Br)c1O [Compound 19, 2-Bromo-N-(3-chloro-4-fluorophenyl)-3-hydroxyIsonicotinimidoyl nitrile] | 38%
28 | COc1cc(/C(C#N)=N/c2ccc(F)c(Cl)c2)c(O)cn1 [Compound 14, N-(3-Chloro-4-fluorophenyl)-5-hydroxy-2-methoxyisonicotinimidoyl nitrile] | 18%
